Marks after values point to notes of the source that are not given here.

One series relates to Leptosphaeria nodorum. The series can be described thus: In vivo preventive test on Leptosphaeria nodorum (wheat). To be noted: evaluated 8 days after inoculation. How it is done: In Vivo Preventive Test on Leptosphaeria nodorum (Wheat) • Solvent: 49 parts by weight of N,N-dimethylacetamide • Emulsifier: 1 part by weight of alkylaryl polyglycol ether To produce a suitable preparation of active compound, 1 part by weight of active compound or active compound combination is mixed with the stated amounts of solvent and emulsifier, and the concentrate is diluted with water to the desired concentration. To test for preventive activity, young plants are sprayed with the preparation of active compound or active compound combination at the stated rate of application. After the spray coating has been dried, the plants are sprayed with a spore suspension of Leptosphaeria nodorum. The plants remain for 48 hours in an incubation cabinet at approximately 20° C. and a relative atmospheric humidity of approximately 100%. The plants are placed in the greenhouse at a temperature of approximately 22° C. and a relative atmospheric humidity of approximately 80%. The test is evaluated 8 days after the inoculation. 0% means an efficacy which corresponds to that of the untreated control, while an efficacy of 100% means that no disease is observed.

For another series, the system named is Tomato. The series can be described thus: Plant damages observed in the Alternaria solani preventive test (tomato). The series is classed as in vivo. Conditions: footnote to table B2. As for the experimental part: In Vivo Preventive Test on Alternaria solani (Tomato) To test for preventive activity, young plants are sprayed with the preparation of active compound at the stated rate of application. One day after this treatment, the plants are inoculated with an aqueous spore suspension of Alternaria solani. The plants remain for one day in an incubation cabinet at approximately 22° C. and a relative atmospheric humidity of 100%. Then the plants are placed in an incubation cabinet at approximately 20° C. and a relative atmospheric humidity of 96%. Under the same conditions, high (at least 85%) to total protection is observed at a dose of 500 and 100 ppm of active ingredient with compound of example 12, 20 and 25, whereas poor (less than 20%) protection to 100% of plant damages is observed with compound 1.006, compound CMP1 (chloro analogue of compound 1.006) and compound CMP2 (fluoro analogue of compound 1.006) claimed in patent application WO-2009/153191 as in table B2: […]

The next series relates to Alternaria solani. The series can be described thus: In vivo preventive test on Alternaria solani (tomato). To be noted: 100 ppm of active ingredient, evaluated 7 days after inoculation. How it is done: In Vivo Preventive Test on Alternaria solani (Tomato) • Solvent: 49 parts by weight of N,N-dimethylformamide • Emulsifier: 1 part by weight of alkylarylpolyglycolether To produce a suitable preparation of active compound, 1 part by weight of active compound is mixed with the stated amounts of solvent and emulsifier, and the concentrate is diluted with water to the desired concentration. To test for preventive activity, young plants are sprayed with the preparation of active compound at the stated rate of application. One day after this treatment, the plants are inoculated with an aqueous spore suspension of Alternaria solani. The plants remain for one day in an incubation cabinet at approximately 22° C. and a relative atmospheric humidity of 100%. Then the plants are placed in an incubation cabinet at approximately 20° C. and a relative atmospheric humidity of 96%. The test is evaluated 7 days after the inoculation. 0% means an efficacy which corresponds to that of the untreated control while an efficacy of 100% means that no disease is observed.

As for `Cn1nc(C(F)F)c(C(=O)N2CCC[C@H]2COc2c(Cl)cc(Cl)cc2Cl)c1Cl` [CMP1, [5-chloro-3-(difluoromethyl)-1-methyl-1H-pyrazol-4-yl]{(2S)-2-[(2,4,6-trichlorophenoxy)methyl]pyrrolidin-1-yl}methanone, reference compound], the Efficacy in the series on Leptosphaeria nodorum (100 ppm of active ingredient) and in the series with Leptosphaeria nodorum (500 ppm of active ingredient) was 0% in each case. The plant damages result in the series on Tomato (100 ppm) and with Tomato (500 ppm) was “^(a)together with 100% of plant damages” throughout.

`Cn1cc(C(=O)N2CCC[C@H]2COc2c(Cl)cc(Cl)cc2Cl)c(C(F)F)n1` [Compound 1.006, [3-(difluoromethyl)-1-methyl-1H-pyrazol-4-yl]{(2S)-2-[(2,4,6-trichlorophenoxy)methyl]pyrrolidin-1-yl}methanone, reference compound]: the values for the Efficacy with Leptosphaeria nodorum (100 ppm of active ingredient), in the series with Leptosphaeria nodorum (500 ppm of active ingredient) and with Alternaria solani were 40%, 60% and 20 ^(b) %, respectively. The plant damages entry with Tomato (500 ppm) is on record as “^(a)together with 100% of plant damages”.

In the case of `Cn1nc(C(F)F)c(C(=O)N2CCC[C@H]2COc2c(Cl)cc(Cl)cc2Cl)c1F` [CMP2, [3-(difluoromethyl)-5-fluoro-1-methyl-1H-pyrazol-4-yl]{(2S)-2-[(2,4,6-trichlorophenoxy)methyl]pyrrolidin-1-yl}methanone], the plant damages result in the series with Tomato (100 ppm) and with Tomato (500 ppm) was “^(a)together with 100% of plant damages” each time.

The record behind these values is patent US9357778B2, “N-acyl-2-(cyclo)alkypyrrolidines and piperidines useful as fungicides” (BAYER CROPSCIENCE AG, priority 2012, dated 2016).
